AC50 data for 13 compounds are collected here from ChEMBL document CHEMBL5291721, “A preclinical secondary pharmacology resource illuminates target-adverse drug reaction associations of marketed drugs” (Nat Commun, 2023).

Assay [1] has as its target Beta-1 adrenergic receptor (Homo sapiens, UniProt P08588). The assay is classed as functional.
For another assay, the target named is T1, Estrogen receptor (Homo sapiens, UniProt P03372).
T1 sequence (P03372 whole entry): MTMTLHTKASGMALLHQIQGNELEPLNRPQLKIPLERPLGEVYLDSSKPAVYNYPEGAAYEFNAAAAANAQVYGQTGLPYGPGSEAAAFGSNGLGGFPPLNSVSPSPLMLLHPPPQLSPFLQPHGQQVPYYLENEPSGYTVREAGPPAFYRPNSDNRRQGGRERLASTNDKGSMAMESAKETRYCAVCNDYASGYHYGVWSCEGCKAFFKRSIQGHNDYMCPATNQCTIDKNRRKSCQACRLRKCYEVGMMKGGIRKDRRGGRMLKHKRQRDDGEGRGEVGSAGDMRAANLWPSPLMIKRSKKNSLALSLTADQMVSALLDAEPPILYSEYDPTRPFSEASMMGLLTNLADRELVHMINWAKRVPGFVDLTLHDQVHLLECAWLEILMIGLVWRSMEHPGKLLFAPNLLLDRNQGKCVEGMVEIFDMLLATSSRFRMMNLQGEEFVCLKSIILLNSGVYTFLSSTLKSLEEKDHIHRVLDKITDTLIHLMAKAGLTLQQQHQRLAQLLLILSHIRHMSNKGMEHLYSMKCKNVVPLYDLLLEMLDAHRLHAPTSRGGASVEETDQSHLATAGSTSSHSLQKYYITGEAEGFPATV

For assay [2], the target named is Glutamate receptor ionotropic, NMDA 1 (Rattus norvegicus, UniProt P35439).
The next assay addresses Histamine H2 receptor (Homo sapiens, UniProt P25021). The assay is classed as functional, cell-based.
Assay [3] concerns the target 5-hydroxytryptamine receptor 2B (Homo sapiens, UniProt P41595). The assay is classed as functional, cell-based.
For assay [4], the target named is T2, 5-hydroxytryptamine receptor 2C (Homo sapiens, UniProt P28335).
T2 sequence (P28335 whole entry): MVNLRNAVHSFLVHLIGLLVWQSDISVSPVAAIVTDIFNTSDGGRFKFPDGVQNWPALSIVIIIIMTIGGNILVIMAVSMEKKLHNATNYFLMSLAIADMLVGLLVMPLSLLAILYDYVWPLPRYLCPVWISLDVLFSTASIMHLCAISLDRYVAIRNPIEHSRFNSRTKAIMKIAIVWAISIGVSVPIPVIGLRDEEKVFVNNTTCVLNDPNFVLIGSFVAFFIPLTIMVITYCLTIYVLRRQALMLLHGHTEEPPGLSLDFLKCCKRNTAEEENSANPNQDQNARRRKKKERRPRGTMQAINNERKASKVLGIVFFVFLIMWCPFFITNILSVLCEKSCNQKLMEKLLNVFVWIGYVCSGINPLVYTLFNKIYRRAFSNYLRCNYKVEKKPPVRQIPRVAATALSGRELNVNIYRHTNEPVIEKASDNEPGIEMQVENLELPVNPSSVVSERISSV

In assay [5] the target is T3, Prostaglandin G/H synthase 1 (Rattus norvegicus, UniProt Q63921).
T3 sequence (Q63921 whole entry): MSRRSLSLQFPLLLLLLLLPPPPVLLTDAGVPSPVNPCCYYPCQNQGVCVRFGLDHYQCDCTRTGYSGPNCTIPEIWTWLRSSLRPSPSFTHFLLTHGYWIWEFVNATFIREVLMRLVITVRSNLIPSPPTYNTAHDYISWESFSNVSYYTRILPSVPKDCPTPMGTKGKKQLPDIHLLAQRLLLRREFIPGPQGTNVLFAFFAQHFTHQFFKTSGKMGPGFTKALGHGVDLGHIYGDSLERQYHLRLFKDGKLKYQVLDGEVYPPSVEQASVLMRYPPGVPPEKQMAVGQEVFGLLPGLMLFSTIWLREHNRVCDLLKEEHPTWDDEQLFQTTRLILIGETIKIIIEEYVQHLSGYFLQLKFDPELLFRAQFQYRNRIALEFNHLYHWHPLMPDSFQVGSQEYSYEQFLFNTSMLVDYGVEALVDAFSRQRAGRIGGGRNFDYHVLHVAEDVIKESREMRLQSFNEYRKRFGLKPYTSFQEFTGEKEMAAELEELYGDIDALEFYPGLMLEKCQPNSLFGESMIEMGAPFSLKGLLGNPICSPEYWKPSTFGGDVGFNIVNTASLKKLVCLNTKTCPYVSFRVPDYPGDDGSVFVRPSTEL
The assay is classed as functional.

Assay [6] deals with Sodium-dependent noradrenaline transporter (Homo sapiens, UniProt P23975).
Assay [7] concerns the target T4, Muscarinic acetylcholine receptor M1 (Homo sapiens, UniProt P11229).
T4 sequence (P11229 whole entry): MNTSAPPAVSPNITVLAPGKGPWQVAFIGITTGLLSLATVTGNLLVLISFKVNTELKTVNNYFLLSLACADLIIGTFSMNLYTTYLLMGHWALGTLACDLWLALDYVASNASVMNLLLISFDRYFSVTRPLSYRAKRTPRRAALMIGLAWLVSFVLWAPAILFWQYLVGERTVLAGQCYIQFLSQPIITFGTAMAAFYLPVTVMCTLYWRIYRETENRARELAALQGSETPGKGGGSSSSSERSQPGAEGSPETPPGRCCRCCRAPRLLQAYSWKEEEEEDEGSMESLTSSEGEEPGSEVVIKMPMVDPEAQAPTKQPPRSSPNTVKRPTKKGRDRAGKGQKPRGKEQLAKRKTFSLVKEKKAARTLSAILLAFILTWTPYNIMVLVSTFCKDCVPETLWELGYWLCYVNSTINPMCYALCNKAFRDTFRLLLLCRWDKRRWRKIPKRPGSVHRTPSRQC
The assay is classed as functional.

Assay [8] has as its target T5, 5-hydroxytryptamine receptor 1A (Homo sapiens, UniProt P08908).
T5 sequence (P08908 whole entry): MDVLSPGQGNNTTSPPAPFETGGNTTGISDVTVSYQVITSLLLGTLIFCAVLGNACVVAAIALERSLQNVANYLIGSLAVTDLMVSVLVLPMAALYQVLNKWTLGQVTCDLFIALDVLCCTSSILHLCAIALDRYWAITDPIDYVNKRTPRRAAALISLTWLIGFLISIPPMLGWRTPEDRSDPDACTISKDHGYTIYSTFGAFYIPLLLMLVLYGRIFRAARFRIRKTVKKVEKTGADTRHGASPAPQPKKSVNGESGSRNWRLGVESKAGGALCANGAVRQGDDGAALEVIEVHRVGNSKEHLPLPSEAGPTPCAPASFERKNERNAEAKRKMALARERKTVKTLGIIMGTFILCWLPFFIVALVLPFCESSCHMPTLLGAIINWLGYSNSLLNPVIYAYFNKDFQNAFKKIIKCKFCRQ
It counts as functional, cell-based.
Note: assay procedure not described here.

Sequence of 5-hydroxytryptamine receptor 2B (P41595 whole entry): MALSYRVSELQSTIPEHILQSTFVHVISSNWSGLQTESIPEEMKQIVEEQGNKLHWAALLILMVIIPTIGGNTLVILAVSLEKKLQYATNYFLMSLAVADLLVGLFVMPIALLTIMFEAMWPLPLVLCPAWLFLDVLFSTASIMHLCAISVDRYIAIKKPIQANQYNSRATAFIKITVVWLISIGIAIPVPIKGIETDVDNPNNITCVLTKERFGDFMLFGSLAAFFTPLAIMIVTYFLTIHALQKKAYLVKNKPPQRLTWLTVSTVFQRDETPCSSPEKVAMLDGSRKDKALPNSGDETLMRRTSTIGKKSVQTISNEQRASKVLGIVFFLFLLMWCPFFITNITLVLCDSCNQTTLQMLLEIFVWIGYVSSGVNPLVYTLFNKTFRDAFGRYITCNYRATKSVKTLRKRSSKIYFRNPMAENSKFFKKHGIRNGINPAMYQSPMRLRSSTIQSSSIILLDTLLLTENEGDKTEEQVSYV
Sequence of Beta-1 adrenergic receptor (P08588 whole entry): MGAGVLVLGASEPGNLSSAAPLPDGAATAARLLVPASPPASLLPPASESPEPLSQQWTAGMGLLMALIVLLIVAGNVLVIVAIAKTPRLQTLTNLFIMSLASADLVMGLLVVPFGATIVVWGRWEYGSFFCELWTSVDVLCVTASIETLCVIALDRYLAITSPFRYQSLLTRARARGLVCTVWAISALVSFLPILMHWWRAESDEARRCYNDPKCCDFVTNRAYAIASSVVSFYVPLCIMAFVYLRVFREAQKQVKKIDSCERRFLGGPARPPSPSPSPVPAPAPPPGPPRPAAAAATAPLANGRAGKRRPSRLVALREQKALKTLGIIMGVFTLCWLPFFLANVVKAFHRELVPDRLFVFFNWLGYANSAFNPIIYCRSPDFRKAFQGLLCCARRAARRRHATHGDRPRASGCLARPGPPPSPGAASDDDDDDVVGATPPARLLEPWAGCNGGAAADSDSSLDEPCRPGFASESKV
Sequence of Histamine H2 receptor (P25021 whole entry): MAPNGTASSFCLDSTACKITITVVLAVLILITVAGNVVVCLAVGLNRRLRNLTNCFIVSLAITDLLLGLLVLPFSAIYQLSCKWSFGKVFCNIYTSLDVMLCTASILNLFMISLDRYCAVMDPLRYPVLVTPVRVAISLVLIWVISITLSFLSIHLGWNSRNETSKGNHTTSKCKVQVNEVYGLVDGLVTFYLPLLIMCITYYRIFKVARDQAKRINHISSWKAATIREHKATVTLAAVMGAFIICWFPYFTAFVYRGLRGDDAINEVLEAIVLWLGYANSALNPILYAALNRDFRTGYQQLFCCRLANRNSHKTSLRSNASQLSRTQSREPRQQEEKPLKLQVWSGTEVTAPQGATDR
Sequence of Sodium-dependent noradrenaline transporter (P23975 whole entry): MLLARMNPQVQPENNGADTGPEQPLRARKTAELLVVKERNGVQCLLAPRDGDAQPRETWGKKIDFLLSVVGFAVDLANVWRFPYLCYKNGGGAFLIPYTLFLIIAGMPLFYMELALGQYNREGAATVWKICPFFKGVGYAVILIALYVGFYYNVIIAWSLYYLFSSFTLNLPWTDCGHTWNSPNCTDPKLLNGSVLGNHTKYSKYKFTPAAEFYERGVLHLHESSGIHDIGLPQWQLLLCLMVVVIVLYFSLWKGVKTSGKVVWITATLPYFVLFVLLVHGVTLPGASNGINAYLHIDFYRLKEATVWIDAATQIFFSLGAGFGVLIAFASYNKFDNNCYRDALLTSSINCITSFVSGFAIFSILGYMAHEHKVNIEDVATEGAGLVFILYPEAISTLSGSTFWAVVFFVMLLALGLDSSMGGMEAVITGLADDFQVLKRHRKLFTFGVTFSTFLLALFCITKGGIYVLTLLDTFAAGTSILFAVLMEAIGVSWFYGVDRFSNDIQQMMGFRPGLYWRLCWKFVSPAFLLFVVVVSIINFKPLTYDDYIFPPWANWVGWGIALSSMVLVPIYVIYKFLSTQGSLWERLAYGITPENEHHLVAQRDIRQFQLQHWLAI

As usually defined, the AC50 is the midpoint of the concentration-response curve, whichever way the signal moves. A high value points to activity only at high concentration. Regarding `CC=CC(=O)N(CC)c1ccccc1C`, the AC50 in [1] was more than 10 µM; at Estrogen receptor, more than 10 µM; in assay [2] it was more than 10 µM; at Histamine H2 receptor, more than 10 µM; in [3], more than 10 µM; in assay [4], more than 30 µM. Further, the AC50 in assay [5] and in assay [6] was more than 10 µM in each case.

In the case of `CCOC(=O)OC(C)OC1=C(C(=O)Nc2ccccn2)N(C)S(=O)(=O)c2ccccc21` (stereo not given) [AMPIROXICAM], the AC50 in [1] was more than 30 µM; on Estrogen receptor, more than 30 µM; in [2], more than 30 µM; on Histamine H2 receptor, more than 30 µM; in [3] it was 10 µM; in assay [4] it was more than 30 µM. Also, the AC50 in assay [5] and in [6] was more than 30 µM each time.

In the case of `CCCCc1ncc(/C=C(\Cc2cccs2)C(=O)O)n1Cc1ccc(C(=O)O)cc1` [EPROSARTAN], the AC50 (in [1]; in assay [7]; in assay [2]; at Histamine H2 receptor; in assay [8]; in [3]) was more than 10 µM in each case. For the same compound, the AC50 in [4] was more than 10 µM; in [5] it was more than 30 µM; in [6] it was more than 30 µM.

As for `CCc1c(Cl)c(O)c(Cl)c(O)c1C(=O)O[C@H]1[C@H](O)[C@H](OC)[C@H](OC/C2=C\C=C\C[C@H](O)/C(C)=C/[C@H](CC)[C@@H](O[C@@H]3OC(C)(C)[C@@H](OC(=O)C(C)C)[C@H](O)[C@@H]3O)/C(C)=C/C(C)=C/C[C@@H]([C@@H](C)O)OC2=O)O[C@@H]1C` [FIDAXOMICIN], the half-maximal activity concentration (AC50) in assay [1] is more than 10 µM; in [7], more than 30 µM; at Estrogen receptor it was more than 30 µM; in [2], more than 10 µM; in assay [3], more than 30 µM; in [4], more than 30 µM. Moreover, the concentration at half-maximal activity (AC50) in [5] and in assay [6] was more than 30 µM in each case.

In the case of `C[C@]1(O)CC[C@H]2[C@@H]3CCC4=CC(=O)CC[C@]4(C)[C@@]3(F)[C@@H](O)C[C@@]21C` [FLUOXYMESTERONE], the AC50 in assay [1] is more than 10 µM; in assay [7], more than 30 µM; in [2] it was more than 10 µM; at Histamine H2 receptor it was more than 30 µM; in [8], more than 10 µM; in [3], more than 10 µM. In addition, the AC50 in [4] was more than 30 µM; in assay [5], more than 10 µM; in [6], more than 10 µM.

Turning to `COc1ccc(CCN(C)CCCC(C#N)(c2cc(OC)c(OC)c(OC)c2)C(C)C)cc1OC` (stereo not given) [GALLOPAMIL], the AC50 in assay [1] is more than 30 µM; in [7] it was more than 30 µM; in assay [2] it was more than 30 µM; on Histamine H2 receptor it was more than 30 µM; in assay [8], 11 µM; in assay [3] it was 0.86 µM. In addition, the AC50 in assay [4] is 5 µM; in [5] it was more than 30 µM; in [6], more than 30 µM.

As to `CCCC(=O)O[C@]1(C(=O)CO)CC[C@H]2[C@@H]3CCC4=CC(=O)CC[C@]4(C)[C@H]3[C@@H](O)C[C@@]21C` [HYDROCORTISONE BUTYRATE], the AC50 (in assay [1]; in assay [7]; in assay [2]; on Histamine H2 receptor; in assay [8]; in assay [3]) was more than 10 µM throughout. Besides, the AC50 is more than 30 µM in [4], more than 10 µM in assay [5] and more than 10 µM in [6].

As to `Cc1cccc(C(C)c2cnc[nH]2)c1C` (stereo not given) [MEDETOMIDINE], the AC50 is more than 30 µM in assay [1]; more than 30 µM in assay [7]; more than 10 µM in [2]; more than 30 µM on Histamine H2 receptor; more than 30 µM in [8]; more than 30 µM in assay [3]. Moreover, the AC50 in [4], in [5] and in assay [6] was more than 30 µM in each case.

Consider `CCCc1nc(C(C)(C)O)c(C(=O)OCc2oc(=O)oc2C)n1Cc1ccc(-c2ccccc2-c2nnn[nH]2)cc1` [OLMESARTAN MEDOXOMIL], for which the AC50 (in assay [1]; in assay [7]; in assay [2]; on Histamine H2 receptor; in assay [8]; in [3]) was more than 10 µM in each case. Also, the AC50 was more than 10 µM in [4], more than 30 µM in assay [5] and more than 30 µM in [6].

Consider `CC[C@@H]1C(=O)OC[C@@H]1Cc1cncn1C` [PILOCARPINE], for which the concentration at half-maximal activity (AC50) on Estrogen receptor was more than 30 µM; in [2], more than 10 µM; at Histamine H2 receptor, more than 10 µM; in assay [3], more than 10 µM; in assay [4], more than 30 µM; in [5], more than 30 µM. This compound registered an AC50 in assay [6] of more than 30 µM.

Take `C#C[C@]1(O)CC[C@H]2[C@@H]3CCc4cc(OC5CCCC5)ccc4[C@H]3CC[C@@]21C` [QUINESTROL]: the AC50 (in [1]; in assay [7]; in assay [2]; at Histamine H2 receptor; in [8]; in assay [3]) was more than 10 µM each time. The AC50 was more than 30 µM in assay [4], more than 10 µM in assay [5] and more than 10 µM in [6].

As to `CN1C(=O)OC(C)(C)C1=O` [TRIMETHADIONE], the AC50 is more than 10 µM in [1]; more than 10 µM at Estrogen receptor; more than 10 µM in assay [2]; more than 10 µM at Histamine H2 receptor; more than 10 µM in assay [3]; more than 30 µM in assay [4]. For the same compound, the AC50 in assay [5] and in [6] was more than 10 µM each time.

Consider `CC(=O)O[C@H]1C[C@@H]2CC[C@@H]3[C@H](CC[C@@]4(C)[C@H]3C[C@H]([N+]3(C)CCCCC3)[C@@H]4OC(C)=O)[C@@]2(C)C[C@@H]1N1CCCCC1` [VECURONIUM], for which the AC50 (in assay [1]; on Estrogen receptor; in assay [2]; at Histamine H2 receptor; in [3]; in [4]) was more than 30 µM in each case. Besides, the AC50 in [5] is 14 µM; in assay [6] it was more than 30 µM.
